Holding throughout (experiment): Test of plant growth inhibiting action on sprouted seeds grown 7 days in a dispersion of wettable powder, visual evaluation
What all share (assay type): in vivo

Assay [1] concerns Raphanus sativus. The settings on record: 168 h, 20% wettable powder dispersed in water, 25°C, lighted thermostat, visual grade 1-5, read-out: Growth Inhibition, Seed of Plant Raphanus sativus (converted); for inhibition at 20 ppm: Concentration 20 ppm; for inhibition at 100 ppm: Concentration 100 ppm. The source says: (§1) Test Example (Test of Plant Growth Inhibiting Action)
(§2) 50 parts of talc, 25 parts of bentonite, 2 parts of Sorpol-9047 (surface active agent manufactured by Toho Chemical Co., Ltd.) and 3 parts of Sorpol-5039 (same as above) were thoroughly mixed to form a carrier. 50 weight parts of test compound was mixed with 200 weight parts of the carrier to prepare a 20% wettable powder. The wettable powder was dispersed in pure water to adjust the amount thereof to a definite concentration (see Table If to 17). Seeds of Oryza sativa or rice plant, Echinochloa crus-galli (a kind of millet) and Raphanus sativus (a kind of radish) all of which were forcedly sprouted in a separate dish, were put in the dispersion of wettable powder and grown for 7 days in a lighted thermostat at 25°C and the degree of growth was visually evaluated in accordance with the standard set forth below.
(§3) Standard of Evaluation in Growth Inhibition
(§4) • no influence: 1 • about 25% growth inhibition: 2 • about 50% growth inhibition: 3 • about 75% growth inhibition: 4 • about 100% growth inhibition: 5

Assay [2] deals with Oryza sativa. As to conditions: 168 h, 20% wettable powder dispersed in water, 25°C, lighted thermostat, visual grade 1-5, read-out: Growth Inhibition, Seed of Plant Oryza sativa (converted); for inhibition at 20 ppm: Concentration 20 ppm; for inhibition at 100 ppm: Concentration 100 ppm.
Description: as §1, §2, §3, §4

For assay [3], the system named is Echinochloa crus-galli. The settings on record: 168 h, 20% wettable powder dispersed in water, 25°C, lighted thermostat, visual grade 1-5, read-out: Growth Inhibition, Seed of Plant Echinochloa crus-galli (converted); for inhibition at 20 ppm: Concentration 20 ppm; for inhibition at 100 ppm: Concentration 100 ppm.
Description: as §1, §2, §3, §4

Each structure is given as a SMILES string.

As a reminder, the inhibition is the relative decrease from the control value, in per cent. With `C=C(COc1ccc(C=Cc2ccccc2)cc1)C(=O)OC` [Compound 4-28], the inhibition at 20 ppm in assay [1] was 0%; in assay [2] it was 25%; in assay [3] it was 75%. In addition, the inhibition at 100 ppm was 0% in assay [1], 25% in assay [2] and 75% in assay [3].
For `C=C(COc1ccc(Cl)cc1C)C(=O)OC` [Compound 4-11], the inhibition at 20 ppm is 0% in assay [1], 75% in assay [2] and 100% in assay [3]. In addition, the inhibition at 100 ppm in assay [1] is 25%; in assay [2], 100%; in assay [3] it was 100%.
With `C=C(COc1ccc(C(F)(F)F)cc1)C(=O)OC` [Compound 4-21], the inhibition at 20 ppm in assay [1] was 25%; in assay [2], 0%; in assay [3], 0%. Besides, the results for the inhibition at 100 ppm in assay [1], in assay [2] and in assay [3] were 25%, 100% and 100%, respectively.
For `C=C(COc1ccc(F)cc1)C(=O)OC` [Compound 4-15, methyl 2-methylene-3-(4-fluorophenoxy)propionate], the inhibition at 20 ppm in assay [1] was 0%; in assay [2], 50%; in assay [3] it was 75%. The inhibition at 100 ppm was 50% in assay [1], 100% in assay [2] and 100% in assay [3].
Consider `C=C(COc1ccc(C)cc1)C(=O)OC` [Compound 4-18], for which the results for the inhibition at 20 ppm in assay [1], in assay [2] and in assay [3] were 25%, 75% and 100%, respectively. Further, the inhibition at 100 ppm in assay [1], in assay [2] and in assay [3] was 100% each time.
Consider `C=C(CSc1ccc(C)cc1)C(=O)OC` [Compound 4-3], for which the figures for the inhibition at 20 ppm in assay [1], in assay [2] and in assay [3] were 0%, 75% and 100%, respectively. The inhibition at 100 ppm in assay [1] was 0%; in assay [2] it was 100%; in assay [3], 100%.
`C=C(CSCc1ccccc1)C(=O)OC` [Compound 4-6]: the inhibition at 20 ppm in assay [1] was 0%; in assay [2] it was 100%; in assay [3], 100%. For the same compound, the results for the inhibition at 100 ppm in assay [1], in assay [2] and in assay [3] were 25%, 100% and 100%, respectively.
On to `C=C(COc1cccc(C)c1)C(=O)OC` [Compound 4-16], for which the inhibition at 20 ppm in assay [1] is 0%; in assay [2] it was 75%; in assay [3] it was 100%. Moreover, the inhibition at 100 ppm is 25% in assay [1], 100% in assay [2] and 100% in assay [3].
As for `C=C(COc1cccc2ncccc12)C(=O)OC` [Compound 4-27], the inhibition at 20 ppm in assay [1] was 0%; in assay [2] it was 75%; in assay [3], 100%. Also, the values for the inhibition at 100 ppm in assay [1], in assay [2] and in assay [3] were 50%, 100% and 100%, respectively.
For `C=C(CON(CC)CC)C(=O)OC` [Compound 4-26], the inhibition at 20 ppm in assay [1], in assay [2] and in assay [3] was 0% in each case. The inhibition at 100 ppm in assay [1] was 0%; in assay [2], 50%; in assay [3] it was 25%.
Consider `C=C(CSc1ccc(OC)cc1)C(=O)OC` [Compound 4-4], for which the results for the inhibition at 20 ppm in assay [1], in assay [2] and in assay [3] were 0%, 100% and 100%, respectively. Also, the inhibition at 100 ppm in assay [1] is 25%; in assay [2] it was 100%; in assay [3], 100%.
As to `C=C(COc1ccc(-c2ccccc2)cc1)C(=O)OC` [Compound 4-13], the inhibition at 20 ppm was 0% in assay [1], 0% in assay [2] and 25% in assay [3]. The inhibition at 100 ppm in assay [1] is 0%; in assay [2], 0%; in assay [3] it was 25%.
For `C=C(COc1cccc2c1CCCC2)C(=O)OC` [Compound 4-17], the values for the inhibition at 20 ppm in assay [1], in assay [2] and in assay [3] were 0%, 75% and 100%, respectively. In addition, the results for the inhibition at 100 ppm in assay [1], in assay [2] and in assay [3] were 0%, 100% and 100%, respectively.
As for `C=C(CSC1CCCCC1)C(=O)OC` [Compound 4-7], the inhibition at 20 ppm in assay [1] is 0%; in assay [2] it was 0%; in assay [3], 75%. Besides, the results for the inhibition at 100 ppm in assay [1], in assay [2] and in assay [3] were 0%, 100% and 100%, respectively.
Regarding `C=C(COc1ccc(OC)cc1)C(=O)OC` [Compound 4-20], the results for the inhibition at 20 ppm in assay [1], in assay [2] and in assay [3] were 0%, 100% and 100%, respectively. Further, the inhibition at 100 ppm was 0% in assay [1], 100% in assay [2] and 100% in assay [3].
Take `C=C(COc1ccc(SC)cc1)C(=O)OC` [Compound 4-19]: the inhibition at 20 ppm is 0% in assay [1], 100% in assay [2] and 100% in assay [3]. Besides, the results for the inhibition at 100 ppm in assay [1], in assay [2] and in assay [3] were 50%, 100% and 100%, respectively.
With `C=C(CSCc1ccc(Cl)cc1)C(=O)OC` [Compound 4-9], the inhibition at 20 ppm was 0% in assay [1], 100% in assay [2] and 100% in assay [3]. The inhibition at 100 ppm is 50% in assay [1], 100% in assay [2] and 100% in assay [3].
`C=C(COc1ccc2c(C)cc(=O)oc2c1)C(=O)OC` [Compound 4-25]: the figures for the inhibition at 20 ppm in assay [1], in assay [2] and in assay [3] were 0%, 25% and 75%, respectively. In addition, the inhibition at 100 ppm was 25% in assay [1], 100% in assay [2] and 100% in assay [3].
Regarding `C=C(CSc1ccc(Cl)cc1)C(=O)OC` [Compound 4-2, methyl 2-methylene-3-(4-chlorophenyl-thio)propionate], the inhibition at 20 ppm in assay [1] was 0%; in assay [2] it was 100%; in assay [3], 100%. Moreover, the inhibition at 100 ppm in assay [1] is 25%; in assay [2] it was 100%; in assay [3], 100%.
Take `C=C(CSc1ccc2ccccc2c1)C(=O)OC` [Compound 4-5]: the inhibition at 20 ppm in assay [1] was 0%; in assay [2] it was 75%; in assay [3], 100%. The figures for the inhibition at 100 ppm in assay [1], in assay [2] and in assay [3] were 0%, 100% and 100%, respectively.
Consider `C=C(COc1ccc(Cl)cc1Cl)C(=O)OC` [Compound 4-12], for which the values for the inhibition at 20 ppm in assay [1], in assay [2] and in assay [3] were 0%, 75% and 100%, respectively. The inhibition at 100 ppm is 0% in assay [1], 100% in assay [2] and 100% in assay [3].
Consider `C=C(CSc1ccccc1)C(=O)OC` [Compound 4-1, methyl 2-methylene-3-(phenylthio)propionate], for which the values for the inhibition at 20 ppm in assay [1], in assay [2] and in assay [3] were 0%, 100% and 100%, respectively. For the same compound, the inhibition at 100 ppm was 25% in assay [1], 100% in assay [2] and 100% in assay [3].
`C=C(COc1cccc(Cl)c1)C(=O)OC` [Compound 4-14]: the inhibition at 20 ppm was 25% in assay [1], 100% in assay [2] and 100% in assay [3]. The inhibition at 100 ppm in assay [1] was 75%; in assay [2], 100%; in assay [3] it was 100%.
For the compound `C=C(COc1ccc(C#N)cc1)C(=O)OC` [Compound 4-22], the inhibition at 20 ppm in assay [1] is 50%; in assay [2], 100%; in assay [3] it was 100%. The inhibition at 100 ppm in assay [1], in assay [2] and in assay [3] was 100% throughout.
Turning to `C=C(CSc1ccccn1)C(=O)OC` [Compound 4-8], the inhibition at 20 ppm in assay [1], in assay [2] and in assay [3] was 0% in each case. Moreover, the inhibition at 100 ppm in assay [1] was 0%; in assay [2] it was 50%; in assay [3], 25%.
